The test system of data set [1] is PANC-1. Briefly: Effect on H3K4me3 level in human PANC-1 cells at 0.04 to 10 uM measured after 24 hrs by Western blot analysis. The following applies: dose 0.04-10 µM. Format: functional, cell-based. (Immunoblotting shows a protein as a band on a membrane.)
The next data set relates to PANC-08-13. Briefly: Synergistic antiproliferative activity against human PANC-08-13 cells assessed as combination index for ED90 upto 20 uM incubated for 72 hrs in presence of MRTX1133. Format: functional.
In data set [2] the test system is KP-4. The data set is described as follows: Synergistic antiproliferative activity against human KP-4 cells assessed as combination index upto 20 uM incubated for 72 hrs in presence of MRTX1133. The class given is functional.
For data set [3], the target named is T1, Protein cereblon/Histone-lysine N-methyltransferase EHMT2 (Homo sapiens, UniProt Q96KQ7+Q96SW2). The data set is described as follows: PROTAC activity at CRBN/G9a in human PANC-1 cells assessed as induction of G9a degradation at 1 uM in presence of 50 uM cycloheximide measured after 4 hrs by Western blot analysis. Format: cell-based.
Target sequence in this assay (Q96SW2 whole entry partner, one chain of several): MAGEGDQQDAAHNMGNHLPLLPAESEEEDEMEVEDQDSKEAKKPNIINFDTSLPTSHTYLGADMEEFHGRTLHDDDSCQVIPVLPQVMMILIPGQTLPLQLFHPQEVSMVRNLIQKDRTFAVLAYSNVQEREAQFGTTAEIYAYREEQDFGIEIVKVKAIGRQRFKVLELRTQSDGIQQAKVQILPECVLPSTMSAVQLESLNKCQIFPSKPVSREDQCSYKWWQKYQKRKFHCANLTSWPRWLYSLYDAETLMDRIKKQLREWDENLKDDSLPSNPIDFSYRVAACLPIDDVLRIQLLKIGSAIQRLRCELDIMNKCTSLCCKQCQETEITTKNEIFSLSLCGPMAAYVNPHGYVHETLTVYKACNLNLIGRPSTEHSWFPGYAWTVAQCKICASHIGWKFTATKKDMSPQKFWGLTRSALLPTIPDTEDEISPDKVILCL
Data set [4] has as its system PANC-1. The data set is described as follows: Effect on H3K23me3 level in human PANC-1 cells at 0.04 to 10 uM measured after 24 hrs by Western blot analysis. The class given is functional, cell-based. The following applies: dose 0.04-10 µM.
Data set [5] concerns PANC-1. The data set is described as follows: Upregulation of gammaH2AX expression in human PANC-1 cells at 0.1 to 10 uM measured after 24 hrs by Western blot analysis. Format: functional, cell-based. The following applies: dose 0.1-10 µM.
The test system of data set [6] is PANC-1. Briefly: Effect on H3K36me3 level in human PANC-1 cells at 0.04 to 10 uM measured after 24 hrs by Western blot analysis. The class given is functional, cell-based. The following applies: dose 0.04-10 µM.
The subject of another data set is Panc 02.03. Briefly: Synergistic antiproliferative activity against human Panc 02.03 cells assessed as combination index upto 20 uM incubated for 72 hrs in presence of MRTX1133. Format: functional.
Data set [7] concerns the target T1, Protein cereblon/Histone-lysine N-methyltransferase EHMT2. Briefly: PROTAC activity at CRBN/G9a in human PANC-1 cells assessed as downregulation of G9a protein level at 1 uM measured after 8 hrs by quantitative proteomics analysis. The class given is cell-based.
Target sequence in this assay (Q96SW2 whole entry partner, one chain of several): as above
The test system of data set [8] is PANC-1. Briefly: Effect on H3K27me2 level in human PANC-1 cells at 0.04 to 10 uM measured after 24 hrs by Western blot analysis. The following applies: dose 0.04-10 µM. The class given is functional, cell-based.
For a further data set, the system named is Panc 05.04. The data set is described as follows: Antiproliferative activity against human Panc 05.04 cells assessed as inhibition of cell growth measured after 72 hrs by SRB assay. Format: functional, cell-based. For orientation: Sulforhodamine B stains cellular protein and so reports cell mass.
A further data set deals with CWR22R. Briefly: Antiproliferative activity against human 22Rv1 cells assessed as inhibition of cell growth measured after 7 days by SRB assay. Format: functional, cell-based. The following applies: 22Rv1, 168 h.
Data set [9] relates to PANC-1. Briefly: Effect on H3K4me2 level in human PANC-1 cells at 0.04 to 10 uM measured after 24 hrs by Western blot analysis. Format: functional, cell-based. The following applies: dose 0.04-10 µM.
Data set [10] concerns the target T2, Histone-lysine N-methyltransferase EHMT2 (Homo sapiens) (UniProt Q96KQ7).
T2 sequence (whole entry): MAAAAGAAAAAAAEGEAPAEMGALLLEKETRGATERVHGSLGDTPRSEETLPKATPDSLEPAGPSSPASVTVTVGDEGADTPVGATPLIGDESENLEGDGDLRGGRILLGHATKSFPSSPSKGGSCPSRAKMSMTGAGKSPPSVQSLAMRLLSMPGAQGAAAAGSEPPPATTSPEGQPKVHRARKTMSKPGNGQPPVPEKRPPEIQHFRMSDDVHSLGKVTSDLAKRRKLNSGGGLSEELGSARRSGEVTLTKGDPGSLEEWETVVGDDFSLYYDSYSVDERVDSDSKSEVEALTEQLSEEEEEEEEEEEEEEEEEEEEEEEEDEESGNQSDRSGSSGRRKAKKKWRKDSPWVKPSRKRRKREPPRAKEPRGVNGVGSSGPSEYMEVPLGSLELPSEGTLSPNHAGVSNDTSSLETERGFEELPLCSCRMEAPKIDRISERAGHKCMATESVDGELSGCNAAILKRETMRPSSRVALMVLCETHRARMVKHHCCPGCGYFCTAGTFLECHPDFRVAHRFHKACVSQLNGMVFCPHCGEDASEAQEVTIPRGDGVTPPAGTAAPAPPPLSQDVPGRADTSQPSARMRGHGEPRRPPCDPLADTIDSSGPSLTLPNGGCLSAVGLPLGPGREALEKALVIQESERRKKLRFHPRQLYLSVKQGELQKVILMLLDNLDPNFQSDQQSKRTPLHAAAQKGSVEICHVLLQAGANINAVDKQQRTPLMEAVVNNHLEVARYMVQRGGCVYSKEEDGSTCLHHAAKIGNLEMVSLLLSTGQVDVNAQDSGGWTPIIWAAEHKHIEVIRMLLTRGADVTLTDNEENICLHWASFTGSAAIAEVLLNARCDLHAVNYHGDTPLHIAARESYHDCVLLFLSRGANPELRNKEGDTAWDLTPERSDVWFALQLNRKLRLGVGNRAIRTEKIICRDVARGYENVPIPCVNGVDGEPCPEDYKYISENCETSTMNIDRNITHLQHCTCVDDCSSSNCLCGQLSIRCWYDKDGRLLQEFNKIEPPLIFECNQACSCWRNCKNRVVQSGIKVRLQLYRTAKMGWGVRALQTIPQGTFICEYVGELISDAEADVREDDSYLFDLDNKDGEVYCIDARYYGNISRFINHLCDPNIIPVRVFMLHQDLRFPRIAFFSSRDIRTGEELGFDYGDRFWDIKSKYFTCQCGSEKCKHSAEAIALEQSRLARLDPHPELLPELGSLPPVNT
The data set is described as follows: Inhibition of N-terminal GST tagged human recombinant G9a (785 to 1210 residues) expressed in Escherichia coli using H3(1 to 21)K9me1 and SAM as substrates incubated for 1 hr by HTRF assay. Background: Time-resolved FRET reads energy transfer from a long-lived donor to a nearby acceptor.

Data set [11] relates to KP-4. The data set is described as follows: Synergistic antiproliferative activity against human KP-4 cells assessed as combination index for ED90 upto 20 uM incubated for 72 hrs in presence of MRTX1133. Format: functional.
A further data set concerns Panc1005. Briefly: Synergistic antiproliferative activity against human Panc1005 cells assessed as combination index for ED90 upto 20 uM incubated for 72 hrs in presence of MRTX1133. Format: functional.
The test system of a further data set is HPAF-II. The data set is described as follows: Antiproliferative activity against human HPAF-II cells assessed as inhibition of cell growth measured after 72 hrs by SRB assay. Format: functional, cell-based.
The target in data set [12] is T1, Protein cereblon/Histone-lysine N-methyltransferase EHMT2. Briefly: PROTAC activity at CRBN/G9a in human PANC-1 cells assessed as induction of G9a degradation at 1 uM pretreated with MG132 for 2 hrs followed by compound addition and measured after 8 hrs by Western blot analysis. The class given is cell-based.
Target sequence in this assay (Q96SW2 whole entry partner, one chain of several): as the sequence (Q96SW2 whole entry partner, one chain of several) above
Data set [13] has the same target. Briefly: PROTAC activity at CRBN/G9a in human PANC-1 cells assessed as induction of G9a degradation at 1 uM pretreated with MLN4924 for 2 hrs followed by compound addition and measured after 8 hrs by Western blot analysis. Format: cell-based.
Target sequence in this assay (Q96SW2 whole entry partner, one chain of several): as the sequence (Q96SW2 whole entry partner, one chain of several) above
Data set [14] relates to PANC-1. Briefly: Antiproliferative activity against human PANC-1 cells assessed as inhibition of cell growth measured after 72 hrs by SRB assay. Format: functional, cell-based.
The target in data set [15] is T1, Protein cereblon/Histone-lysine N-methyltransferase EHMT2. Briefly: PROTAC activity at CRBN/G9a in human PANC-1 cells assessed as induction of G9a degradation measured after 8 hrs by Western blot analysis. The class given is cell-based.
The nature of data set [16]: Half life in male ICR mouse at 20 mg/kg, ip measured upto 24 hrs by LC-MS/MS analysis. The class given is ADME, organism-based. The following applies: in vivo.
The test system of data set [17] is KP-4. Briefly: Antiproliferative activity against human KP-4 cells assessed as inhibition of cell growth measured after 72 hrs by SRB assay. The class given is functional, cell-based.

Activity calls are given as the source filed them. No cut-off for these calls is given here.

The term IC50 denotes the point on the concentration scale where inhibition reaches its midpoint. The DC50 is the concentration at which degradation of the target reaches its halfway point. One may read the half-life as the time in which the quantity being followed falls by half. Low values mean fast loss, high ones slow loss. Turning to `COc1cc2c(NC3CCN(CCCC(=O)NCCCCCCCCNc4cccc5c4C(=O)N(C4CCC(=O)NC4=O)C5=O)CC3)nc(C3CCCCC3)nc2cc1OCCCN1CCCC1` (centres undefined), the result (in the data set on PANC-1 [1]; in the data set with PANC-1 [4]; in the data set on PANC-1 [6]; in the data set on PANC-1 [8]; in the data set on PANC-1 [9]; in data set [12]) was inactive. Moreover, in data set [13], the result was inactive. Also, the CI was less than 0.4 in the data set on PANC-08-13; less than 0.8 with KP-4 [2]; less than 0.8 with Panc 02.03; less than 0.4 in the data set on KP-4 [11]; less than 0.4 in the data set on Panc1005. Further, the result (in [3]; with PANC-1 [5]; in data set [7]; with Panc 05.04; in the data set with HPAF-II; in the data set with PANC-1 [14]) was Active. Besides, in the data set with KP-4 [17], the result was Active. In the data set with CWR22R, the IC50 was found to be 9.9 µM. Further, the inhibition result in data set [10] was “Active”. The Activity entry in data set [15] was “Dose-Dependent Effect”. Besides, the DC50 in [15] stood at 0.1 µM. In [16], this compound gave a half-life of 4.2 h.

The record behind these values is ChEMBL document CHEMBL5523762, “Discovery of Potent and Selective G9a Degraders for the Treatment of Pancreatic Cancer” (J Med Chem, 2024).
